The supplement of paper PMC10307832

Columns and labels:
Test in all cases: relative viability (nuclei count vs DMSO), 5 days (fraction); higher = more cells survive
Linifanib + Olaparib = compound: Cc1ccc(F)c(NC(=O)Nc2ccc(-c3cccc4[nH]nc(N)c34)cc2)c1 [Linifanib] + O=C(c1cc(Cc2n[nH]c(=O)c3ccccc23)ccc1F)N1CCN(C(=O)C2CC2)CC1 [Olaparib] (partner 8 µM)
How it was run: (§1)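 Nuclei were stained with Hoechst during a one-step fixation (final 0.05% Triton X-100, 1% formaldehyde, 1 ug/ml Hoechst) carried out 5 days after dosing, then counted on 4× images. The cells, lung cancer lines in 1536-well plates, had been dosed by pin tool the day after seeding with one drug alone or a fixed anchor-drug dose plus five library-drug doses (not always all listed) in √10 steps. Relative viability is the nuclei count in treated wells divided by that in vehicle wells, and each value is the median of duplicate plates.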

Linifanib + Pictilisib = compound: Cc1ccc(F)c(NC(=O)Nc2ccc(-c3cccc4[nH]nc(N)c34)cc2)c1 [Linifanib] + CS(=O)(=O)N1CCN(Cc2cc3nc(-c4cccc5[nH]ncc45)nc(N4CCOCC4)c3s2)CC1 [Pictilisib] (partner 1 µM)
How it was run: as §1

Linifanib + Lapatinib = compound: Cc1ccc(F)c(NC(=O)Nc2ccc(-c3cccc4[nH]nc(N)c34)cc2)c1 [Linifanib] + CS(=O)(=O)CCNCc1ccc(-c2ccc3ncnc(Nc4ccc(OCc5cccc(F)c5)c(Cl)c4)c3c2)o1 [Lapatinib] (partner 2 µM)
How it was run: as §1

Linifanib + Foretinib = compound: Cc1ccc(F)c(NC(=O)Nc2ccc(-c3cccc4[nH]nc(N)c34)cc2)c1 [Linifanib] + COc1cc2c(Oc3ccc(NC(=O)C4(C(=O)Nc5ccc(F)cc5)CC4)cc3F)ccnc2cc1OCCCN1CCOCC1 [Foretinib] (partner 0.25 µM)
How it was run: as §1

Linifanib + Linsitinib = compound: Cc1ccc(F)c(NC(=O)Nc2ccc(-c3cccc4[nH]nc(N)c34)cc2)c1 [Linifanib] + C[C@]1(O)C[C@@H](c2nc(-c3ccc4ccc(-c5ccccc5)nc4c3)c3c(N)nccn32)C1 [Linsitinib] (partner 1 µM)
How it was run: as §1

Linifanib + Phenformin = compound: Cc1ccc(F)c(NC(=O)Nc2ccc(-c3cccc4[nH]nc(N)c34)cc2)c1 [Linifanib] + N=C(N)NC(=N)NCCc1ccccc1 [Phenformin] (partner 250 µM)
How it was run: as §1

Linifanib + Crizotinib = compound: Cc1ccc(F)c(NC(=O)Nc2ccc(-c3cccc4[nH]nc(N)c34)cc2)c1 [Linifanib] + C[C@@H](Oc1cc(-c2cnn(C3CCNCC3)c2)cnc1N)c1c(Cl)ccc(F)c1Cl [Crizotinib] (partner 1 µM)
How it was run: as §1

Linifanib + Navitoclax = compound: Cc1ccc(F)c(NC(=O)Nc2ccc(-c3cccc4[nH]nc(N)c34)cc2)c1 [Linifanib] + CC1(C)CCC(c2ccc(Cl)cc2)=C(CN2CCN(c3ccc(C(=O)NS(=O)(=O)c4ccc(N[C@H](CCN5CCOCC5)CSc5ccccc5)c(S(=O)(=O)C(F)(F)F)c4)cc3)CC2)C1 [Navitoclax] (partner 0.5 µM)
How it was run: as §1

Linifanib + Alpelisib = compound: Cc1ccc(F)c(NC(=O)Nc2ccc(-c3cccc4[nH]nc(N)c34)cc2)c1 [Linifanib] + Cc1nc(NC(=O)N2CCC[C@H]2C(N)=O)sc1-c1ccnc(C(C)(C)C(F)(F)F)c1 [Alpelisib] (partner 2 µM)
How it was run: as §1

Linifanib + Decitabine = compound: Cc1ccc(F)c(NC(=O)Nc2ccc(-c3cccc4[nH]nc(N)c34)cc2)c1 [Linifanib] + Nc1ncn([C@H]2C[C@H](O)[C@@H](CO)O2)c(=O)n1 [Decitabine] (partner 2 µM)
How it was run: as §1

Linifanib = compound: Cc1ccc(F)c(NC(=O)Nc2ccc(-c3cccc4[nH]nc(N)c34)cc2)c1 [Linifanib]
How it was run: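 Lung cancer cell lines in 1536-well plates were exposed by pinning to five library-drug doses (not always all listed) √10 apart, following an overnight hold at 37 °C. MetaXpress counted Hoechst-stained nuclei from 4× images taken after 5 days without medium change. Viability is the median ratio of treated-well to vehicle-well nuclei across plates. Plates required control CV below 25% and at least one doubling.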

Linifanib + Bortezomib = compound: Cc1ccc(F)c(NC(=O)Nc2ccc(-c3cccc4[nH]nc(N)c34)cc2)c1 [Linifanib] + CC(C)C[C@H](NC(=O)[C@H](Cc1ccccc1)NC(=O)c1cnccn1)B(O)O [Bortezomib] (partner 0.002 µM)
How it was run: as §1

| Cell Line | relative viability (Linifanib + Olaparib; first compound 0.03162 µM) | relative viability (Linifanib + Olaparib; first compound 0.1 µM) | relative viability (Linifanib + Olaparib; first compound 0.3162 µM) | relative viability (Linifanib + Pictilisib; first compound 0.03162 µM) | relative viability (Linifanib + Pictilisib; first compound 0.1 µM) | relative viability (Linifanib + Pictilisib; first compound 0.3162 µM) | relative viability (Linifanib + Lapatinib; first compound 0.03162 µM) | relative viability (Linifanib + Lapatinib; first compound 0.1 µM) | relative viability (Linifanib + Lapatinib; first compound 0.3162 µM) | relative viability (Linifanib + Foretinib; first compound 0.03162 µM) | relative viability (Linifanib + Foretinib; first compound 0.1 µM) | relative viability (Linifanib + Foretinib; first compound 0.3162 µM) | relative viability (Linifanib + Linsitinib; first compound 0.03162 µM) | relative viability (Linifanib + Linsitinib; first compound 0.1 µM) | relative viability (Linifanib + Linsitinib; first compound 0.3162 µM) | relative viability (Linifanib + Phenformin; first compound 0.03162 µM) | relative viability (Linifanib + Phenformin; first compound 0.1 µM) | relative viability (Linifanib + Phenformin; first compound 0.3162 µM) | relative viability (Linifanib + Crizotinib; first compound 0.03162 µM) | relative viability (Linifanib + Crizotinib; first compound 0.1 µM) | relative viability (Linifanib + Crizotinib; first compound 0.3162 µM) | relative viability (Linifanib + Navitoclax; first compound 0.03162 µM) | relative viability (Linifanib + Navitoclax; first compound 0.1 µM) | relative viability (Linifanib + Navitoclax; first compound 0.3162 µM) | relative viability (Linifanib + Alpelisib; first compound 0.03162 µM) | relative viability (Linifanib + Alpelisib; first compound 0.1 µM) | relative viability (Linifanib + Alpelisib; first compound 0.3162 µM) | relative viability (Linifanib + Decitabine; first compound 0.03162 µM) | relative viability (Linifanib + Decitabine; first compound 0.1 µM) | relative viability (Linifanib + Decitabine; first compound 0.3162 µM) | relative viability (Linifanib; 0.03162 µM) | relative viability (Linifanib; 0.1 µM) | relative viability (Linifanib; 0.3162 µM) | relative viability (Linifanib + Bortezomib; first compound 0.03162 µM) | relative viability (Linifanib + Bortezomib; first compound 0.1 µM) | relative viability (Linifanib + Bortezomib; first compound 0.3162 µM) |
| --- | --- | --- | --- | --- | --- | --- | --- | --- | --- | --- | --- | --- | --- | --- | --- | --- | --- | --- | --- | --- | --- | --- | --- | --- | --- | --- | --- | --- | --- | --- | --- | --- | --- | --- | --- | --- |
| A549 | 0.369 | 0.535 | 0.305 | 0.399 | 0.515 | 0.49 | 0.974 | 1.06 | 0.929 | 0.972 | 0.922 | 0.808 | 0.583 | 0.716 | 0.638 | 0.197 | 0.215 | 0.159 | 0.795 | 0.907 | 0.726 | 1.18 | 1.28 | 1.09 | 0.885 | 0.948 | 0.647 | 0.285 | 0.309 | 0.374 | 1.01 | 1.05 | 0.996 |  |  |  |
| Calu-6 | 0.539 | 0.602 | 0.565 | 0.93 | 0.995 | 0.892 | 1.12 | 1.19 | 1 | 0.812 | 0.95 | 0.881 | 1.01 | 0.919 | 0.969 |  |  |  | 0.815 | 0.768 | 0.826 | 0.888 | 0.863 | 0.873 | 1.08 | 1.05 | 1.01 |  |  |  | 1.05 | 1.05 | 0.995 | 0.978 | 1.15 | 1.07 |
| EBC-1 | 0.698 | 0.757 | 0.73 | 0.372 | 0.486 | 0.477 | 0.207 | 0.21 | 0.214 | 0.115 | 0.103 | 0.112 | 0.996 | 0.864 | 0.731 |  |  |  | 0.205 | 0.208 | 0.224 | 0.472 | 0.412 | 0.387 | 0.809 | 1.06 | 0.791 |  |  |  | 1.02 | 1.14 | 0.969 | 0.551 | 0.628 | 0.574 |
